# ChEMBL document CHEMBL2176970, “Discovery and optimization of a series of 3-(3-phenyl-3H-imidazo[4,5-b]pyridin-2-yl)pyridin-2-amines: orally bioavailable, selective, and potent ATP-independent Akt inhibitors” (J Med Chem, 2012)
# Active and inactive are the calls of the source. The rule behind the calls is not given here.
# Key:
# [1] = molecular target: Calcium/calmodulin-dependent protein kinase type II subunit delta (Homo sapiens) (UniProt Q13557); assay: Inhibition of CAMK2delta using fluorescent labelled substrate at 5 uM by caliper method
# [2] = molecular target: Cyclin-dependent kinase 2/cyclin E (Homo sapiens) (UniProt P24864+P24941+O96020); assay: Inhibition of CDK2/cyclinE using fluorescent labelled substrate at 5 uM by caliper method; format: protein-complex assay
# [3] = Half life in female CD1 mouse liver microsomes at 1 uM by LC/MS/MS; format: ADME, Microsome
# [4] = molecular target: cAMP-dependent protein kinase catalytic subunit PRKX (Homo sapiens) (UniProt P51817); assay: Inhibition of PRKX using fluorescent labelled substrate at 5 uM by caliper method
# cAMP-dependent protein kinase catalytic subunit PRKX (Homo sapiens), sequence (P51817 whole entry): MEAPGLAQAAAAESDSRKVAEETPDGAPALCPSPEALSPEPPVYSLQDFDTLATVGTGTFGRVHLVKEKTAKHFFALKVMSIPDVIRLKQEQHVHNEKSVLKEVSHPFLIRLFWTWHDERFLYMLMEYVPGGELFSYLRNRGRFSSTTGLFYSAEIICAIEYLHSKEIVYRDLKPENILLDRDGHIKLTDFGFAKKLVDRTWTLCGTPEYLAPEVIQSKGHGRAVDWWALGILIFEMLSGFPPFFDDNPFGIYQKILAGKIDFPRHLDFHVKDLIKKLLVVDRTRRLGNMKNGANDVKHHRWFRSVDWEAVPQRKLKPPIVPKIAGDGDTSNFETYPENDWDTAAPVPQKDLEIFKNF
# [5] = molecular target: T1, RAC-alpha serine/threonine-protein kinase (Homo sapiens, UniProt P31749); assay: Inhibition of Akt1 in human A2780 cells assessed as phosphorylation of Akt at S473 after 2 hrs by Western Blot analysis; format: cell-based
# T1 sequence (P31749 whole entry): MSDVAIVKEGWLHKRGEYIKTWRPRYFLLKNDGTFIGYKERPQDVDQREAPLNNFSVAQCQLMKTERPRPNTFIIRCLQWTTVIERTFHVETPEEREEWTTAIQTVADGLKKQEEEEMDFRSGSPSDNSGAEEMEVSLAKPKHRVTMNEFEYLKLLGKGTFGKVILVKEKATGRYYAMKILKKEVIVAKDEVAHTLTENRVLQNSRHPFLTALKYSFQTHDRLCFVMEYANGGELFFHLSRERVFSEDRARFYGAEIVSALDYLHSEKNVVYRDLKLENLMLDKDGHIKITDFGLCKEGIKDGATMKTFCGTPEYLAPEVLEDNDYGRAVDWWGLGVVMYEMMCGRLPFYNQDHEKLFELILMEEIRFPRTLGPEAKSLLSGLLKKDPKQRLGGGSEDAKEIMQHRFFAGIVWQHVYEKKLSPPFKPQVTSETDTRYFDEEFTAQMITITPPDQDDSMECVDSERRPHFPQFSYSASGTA
# [6] = molecular target: Ribosomal protein S6 kinase alpha-4 (Homo sapiens) (UniProt O75676); assay: Inhibition of MSK2 using fluorescent labelled substrate at 5 uM by caliper method
# [7] = molecular target: Serine/threonine-protein kinase Sgk1 (Homo sapiens) (UniProt O00141); assay: Inhibition of SGK1 using fluorescent labelled substrate at 5 uM by caliper method
# [8] = molecular target: Cytochrome P450 3A4 (Homo sapiens, UniProt P08684); assay: Inhibition of CYP3A4 in human liver microsomes using midazolam as substrate after 10 mins; format: ADME, Microsome
# Cytochrome P450 3A4, sequence (P08684 whole entry): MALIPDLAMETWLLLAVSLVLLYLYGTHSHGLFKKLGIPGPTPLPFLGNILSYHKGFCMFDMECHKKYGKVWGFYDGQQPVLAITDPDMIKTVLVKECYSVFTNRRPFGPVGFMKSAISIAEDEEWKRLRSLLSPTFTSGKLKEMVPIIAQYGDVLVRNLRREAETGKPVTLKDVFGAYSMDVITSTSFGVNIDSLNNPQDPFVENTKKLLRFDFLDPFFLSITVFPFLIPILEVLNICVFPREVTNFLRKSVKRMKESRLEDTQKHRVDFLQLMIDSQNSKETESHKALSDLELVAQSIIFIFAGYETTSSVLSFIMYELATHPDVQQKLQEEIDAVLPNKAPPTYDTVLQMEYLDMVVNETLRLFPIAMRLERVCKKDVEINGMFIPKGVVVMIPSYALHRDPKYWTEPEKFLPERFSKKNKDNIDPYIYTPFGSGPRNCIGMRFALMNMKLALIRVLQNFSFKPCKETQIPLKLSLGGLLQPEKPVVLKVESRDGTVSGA
# [9] = molecular target: Protein kinase C beta type (Homo sapiens) (UniProt P05771); assay: Inhibition of PKCbeta1 using fluorescent labelled substrate at 5 uM by caliper method
# [10] = molecular target: Cytochrome P450 2C19 (Homo sapiens, UniProt P33261); assay: Inhibition of CYP2C19 in human liver microsomes using S-mephenytoin as substrate after 10 mins; format: ADME, Microsome
# [11] = molecular target: Cytochrome P450 2D6 (Homo sapiens, UniProt P10635); assay: Inhibition of CYP2D6 in human liver microsomes using bufuralol as substrate after 10 mins; format: ADME, Microsome
# [12] = system: AN3-CA; assay: Antiproliferative activity against human AN3CA cells after 72 hrs by MTS assay; format: functional, cell-based
# [13] = molecular target: T2, RAC-gamma serine/threonine-protein kinase (Homo sapiens, UniProt Q9Y243); assay: Inhibition of Akt3 (1 to 479) expressed in Sf9 cells using biotin-GRPRTSSFAEG as substrate after 20 mins by Alpha-screen assay
# T2 sequence (Q9Y243 whole entry): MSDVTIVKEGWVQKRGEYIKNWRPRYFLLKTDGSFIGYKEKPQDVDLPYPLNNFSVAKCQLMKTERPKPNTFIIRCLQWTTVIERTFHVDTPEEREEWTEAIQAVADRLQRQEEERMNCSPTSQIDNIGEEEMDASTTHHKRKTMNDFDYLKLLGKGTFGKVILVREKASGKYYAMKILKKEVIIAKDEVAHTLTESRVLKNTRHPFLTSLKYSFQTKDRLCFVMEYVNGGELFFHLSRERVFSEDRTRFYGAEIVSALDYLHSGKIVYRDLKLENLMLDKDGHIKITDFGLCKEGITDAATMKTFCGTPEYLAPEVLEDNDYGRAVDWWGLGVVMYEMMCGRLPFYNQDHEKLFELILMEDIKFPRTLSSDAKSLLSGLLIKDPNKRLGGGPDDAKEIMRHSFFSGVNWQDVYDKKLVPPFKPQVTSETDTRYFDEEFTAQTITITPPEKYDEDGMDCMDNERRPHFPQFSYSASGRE
# [14] = molecular target: Serine/threonine-protein kinase Sgk3 (Homo sapiens) (UniProt Q96BR1); assay: Inhibition of SGK3 using fluorescent labelled substrate at 5 uM by caliper method
# [15] = molecular target: Ribosomal protein S6 kinase alpha-1 (Homo sapiens) (UniProt Q15418); assay: Inhibition of RSK1 using fluorescent labelled substrate at 5 uM by caliper method
# Ribosomal protein S6 kinase alpha-1 (Homo sapiens), sequence (Q15418 whole entry): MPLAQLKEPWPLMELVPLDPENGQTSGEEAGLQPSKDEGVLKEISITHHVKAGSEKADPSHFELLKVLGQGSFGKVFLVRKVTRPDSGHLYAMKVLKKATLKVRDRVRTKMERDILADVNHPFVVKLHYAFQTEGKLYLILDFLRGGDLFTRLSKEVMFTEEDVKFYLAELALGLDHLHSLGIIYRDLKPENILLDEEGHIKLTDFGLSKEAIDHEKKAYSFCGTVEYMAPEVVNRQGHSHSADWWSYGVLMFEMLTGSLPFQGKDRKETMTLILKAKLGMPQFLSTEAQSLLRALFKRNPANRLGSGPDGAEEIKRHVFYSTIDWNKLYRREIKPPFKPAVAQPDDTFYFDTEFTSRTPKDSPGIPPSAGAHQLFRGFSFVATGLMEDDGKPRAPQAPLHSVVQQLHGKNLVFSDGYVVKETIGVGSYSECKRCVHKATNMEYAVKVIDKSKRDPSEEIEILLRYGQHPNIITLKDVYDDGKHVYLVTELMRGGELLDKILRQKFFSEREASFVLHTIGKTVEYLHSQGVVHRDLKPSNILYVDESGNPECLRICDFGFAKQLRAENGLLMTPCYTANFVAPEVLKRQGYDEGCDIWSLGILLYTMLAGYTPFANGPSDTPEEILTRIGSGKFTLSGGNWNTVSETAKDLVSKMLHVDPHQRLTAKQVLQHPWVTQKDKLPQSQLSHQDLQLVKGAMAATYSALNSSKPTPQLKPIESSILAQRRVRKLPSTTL
# [16] = molecular target: Protein kinase C theta type (Homo sapiens) (UniProt Q04759); assay: Inhibition of PKCtheta using fluorescent labelled substrate at 5 uM by caliper method
# [17] = molecular target: Cyclin-dependent kinase 1/cyclin B1 (Homo sapiens) (UniProt P06493+P14635); assay: Inhibition of CDK1/cyclinB using fluorescent labelled substrate at 5 uM by caliper method; format: protein-complex assay
# [18] = molecular target: Ribosomal protein S6 kinase alpha-3 (Homo sapiens) (UniProt P51812); assay: Inhibition of RSK2 using fluorescent labelled substrate at 5 uM by caliper method
# Ribosomal protein S6 kinase alpha-3 (Homo sapiens), sequence (P51812 whole entry): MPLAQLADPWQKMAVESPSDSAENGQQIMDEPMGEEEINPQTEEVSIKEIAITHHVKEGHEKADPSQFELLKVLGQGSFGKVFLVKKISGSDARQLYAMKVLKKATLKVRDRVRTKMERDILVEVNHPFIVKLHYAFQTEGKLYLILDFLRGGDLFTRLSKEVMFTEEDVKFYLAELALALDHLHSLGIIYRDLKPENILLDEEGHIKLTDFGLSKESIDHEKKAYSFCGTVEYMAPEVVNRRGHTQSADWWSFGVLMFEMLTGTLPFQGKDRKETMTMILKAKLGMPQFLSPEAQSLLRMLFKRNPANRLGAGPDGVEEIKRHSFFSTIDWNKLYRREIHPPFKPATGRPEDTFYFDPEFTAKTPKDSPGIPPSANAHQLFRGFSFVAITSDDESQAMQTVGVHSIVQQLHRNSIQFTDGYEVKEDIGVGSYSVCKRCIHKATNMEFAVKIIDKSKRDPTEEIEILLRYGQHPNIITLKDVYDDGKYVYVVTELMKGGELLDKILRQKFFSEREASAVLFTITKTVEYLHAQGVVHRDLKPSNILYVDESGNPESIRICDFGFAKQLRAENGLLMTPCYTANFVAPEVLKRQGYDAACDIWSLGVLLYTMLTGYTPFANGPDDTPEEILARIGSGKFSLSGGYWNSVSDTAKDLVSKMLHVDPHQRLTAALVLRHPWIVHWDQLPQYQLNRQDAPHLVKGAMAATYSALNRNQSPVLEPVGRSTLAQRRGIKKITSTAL
# [19] = molecular target: Insulin receptor (Homo sapiens) (UniProt P06213); assay: Inhibition of INSR using fluorescent labelled substrate at 5 uM by caliper method
# [20] = molecular target: T3, RAC-beta serine/threonine-protein kinase (Homo sapiens, UniProt P31751); assay: Binding affinity to Akt2 (1 to 481) expressed in Sf9 cells assessed as change in melting temperature at 15 uM
# T3 sequence (P31751 whole entry): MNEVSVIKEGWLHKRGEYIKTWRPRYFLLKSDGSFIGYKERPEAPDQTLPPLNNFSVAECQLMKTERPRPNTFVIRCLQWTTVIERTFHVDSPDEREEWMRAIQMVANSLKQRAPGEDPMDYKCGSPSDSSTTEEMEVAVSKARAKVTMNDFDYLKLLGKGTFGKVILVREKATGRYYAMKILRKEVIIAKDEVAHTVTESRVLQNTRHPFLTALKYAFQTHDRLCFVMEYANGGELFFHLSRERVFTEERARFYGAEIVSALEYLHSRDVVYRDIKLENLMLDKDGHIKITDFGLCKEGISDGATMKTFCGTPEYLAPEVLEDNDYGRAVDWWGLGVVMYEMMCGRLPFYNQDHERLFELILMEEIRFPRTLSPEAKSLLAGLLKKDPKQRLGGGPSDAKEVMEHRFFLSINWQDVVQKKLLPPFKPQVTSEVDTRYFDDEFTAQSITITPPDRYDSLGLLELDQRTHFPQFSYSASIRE
# [21] = molecular target: Ribosomal protein S6 kinase alpha-6 (Homo sapiens) (UniProt Q9UK32); assay: Inhibition of RSK4 using fluorescent labelled substrate at 5 uM by caliper method
# [22] = molecular target: Protein kinase C alpha type (Homo sapiens) (UniProt P17252); assay: Inhibition of PKCalpha using fluorescent labelled substrate at 5 uM by caliper method
# [23] = molecular target: T1, RAC-alpha serine/threonine-protein kinase; assay: Inhibition of Akt1 in human A2780 cells assessed as phosphorylation PRAS40 at T246 after 2 hrs by Western Blot analysis; format: cell-based
# [24] = molecular target: Serine/threonine-protein kinase PAK 2 (Homo sapiens) (UniProt Q13177); assay: Inhibition of PAK2 using fluorescent labelled substrate at 5 uM by caliper method
# [25] = molecular target: Mitogen-activated protein kinase 3 (Homo sapiens) (UniProt P27361); assay: Inhibition of MAPK3 using fluorescent labelled substrate at 5 uM by caliper method
# [26] = molecular target: Ribosomal protein S6 kinase beta-1 (Homo sapiens) (UniProt P23443); assay: Inhibition of P70S6KB1 using fluorescent labelled substrate at 5 uM by caliper method
# [27] = molecular target: Ribosomal protein S6 kinase alpha-2 (Homo sapiens) (UniProt Q15349); assay: Inhibition of RSK3 using fluorescent labelled substrate at 5 uM by caliper method
# [28] = molecular target: T1, RAC-alpha serine/threonine-protein kinase; assay: Inhibition of Akt1 in human AN3CA cells assessed as phosphorylation of Akt at S473 after 2 hrs by Western Blot analysis; format: cell-based, AN3-CA
# [29] = molecular target: Angiopoietin-1 receptor (Homo sapiens) (UniProt Q02763); assay: Inhibition of TIE2 using fluorescent labelled substrate at 5 uM by caliper method
# [30] = molecular target: MAP kinase-activated protein kinase 2 (Homo sapiens) (UniProt P49137); assay: Inhibition of MAPKAPK2 using fluorescent labelled substrate at 5 uM by caliper method
# [31] = molecular target: T1, RAC-alpha serine/threonine-protein kinase; assay: Inhibition of Akt 1 in human AN3CA cells assessed as phosphorylation of Akt at T308 after 2 hrs by Western Blot analysis; format: cell-based, AN3-CA
# [32] = molecular target: T2, RAC-gamma serine/threonine-protein kinase; assay: Binding affinity to Akt3 (1 to 479) expressed in Sf9 cells assessed as change in melting temperature at 15 uM
# [33] = Half life in human liver microsomes at 1 uM by LC/MS/MS; format: ADME, Microsome
# [34] = Half life in male CD1 mouse liver microsomes at 1 uM by LC/MS/MS; format: ADME, Microsome
# [35] = molecular target: T3, RAC-beta serine/threonine-protein kinase; assay: Inhibition of Akt2 (1 to 481) expressed in Sf9 cells using biotin-GRPRTSSFAEG as substrate after 20 mins by Alpha-screen assay
# [36] = molecular target: Serine/threonine-protein kinase PAK 3 (Homo sapiens) (UniProt O75914); assay: Inhibition of PAK3 using fluorescent labelled substrate at 5 uM by caliper method
# Serine/threonine-protein kinase PAK 3 (Homo sapiens), sequence (O75914 whole entry, looked up): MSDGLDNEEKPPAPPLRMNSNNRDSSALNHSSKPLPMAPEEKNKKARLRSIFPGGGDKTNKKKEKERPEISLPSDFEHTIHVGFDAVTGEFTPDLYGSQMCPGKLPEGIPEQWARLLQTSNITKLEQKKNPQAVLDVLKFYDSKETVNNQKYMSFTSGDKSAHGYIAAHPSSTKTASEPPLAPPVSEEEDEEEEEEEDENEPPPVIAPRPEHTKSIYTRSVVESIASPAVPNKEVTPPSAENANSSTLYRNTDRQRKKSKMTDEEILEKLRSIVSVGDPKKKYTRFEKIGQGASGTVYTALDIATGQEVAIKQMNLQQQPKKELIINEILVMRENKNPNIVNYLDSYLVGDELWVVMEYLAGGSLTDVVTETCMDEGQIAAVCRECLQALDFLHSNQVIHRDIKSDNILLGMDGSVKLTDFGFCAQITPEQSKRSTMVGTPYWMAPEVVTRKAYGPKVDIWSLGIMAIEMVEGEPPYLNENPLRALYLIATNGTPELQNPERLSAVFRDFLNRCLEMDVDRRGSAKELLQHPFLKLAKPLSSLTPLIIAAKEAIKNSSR
# [37] = molecular target: T1, RAC-alpha serine/threonine-protein kinase; assay: Inhibition of Akt 1 in human A2780 cells assessed as phosphorylation of Akt at T308 after 2 hrs by Western Blot analysis; format: cell-based
SMILES,inhibition [1] [%],inhibition [2] [%],half-life at 1 µM [3] [h],inhibition [4] [%],IC50 [5] [µM],inhibition [6] [%],inhibition [7] [%],IC50 [8] [µM],inhibition [9] [%],IC50 [10] [µM],IC50 [11] [µM],IC50 [12] [µM],IC50 [13] [µM],inhibition [14] [%],inhibition [15] [%],inhibition [16] [%],inhibition [17] [%],inhibition [18] [%],inhibition [19] [%],ΔTm [20] [°C],further results
Nc1ncccc1-c1nc2cccnc2n1-c1ccc(CNC(=O)c2ccccc2)cc1,> 25,> 25,> 1,> 25,0.41,> 25,> 25,> 10,> 25,> 10,> 10,> 100,24,> 25,> 25,> 25,> 25,> 25,> 25,1.3,inhibition [21]: > 25%; inhibition [22]: > 25%; IC50 [23]: > 10 µM; inhibition [24]: > 25%; inhibition [25]: > 25%; inhibition [26]: > 25%; inhibition [27]: > 25%; IC50 [28]: 5.6 µM; inhibition [29]: > 25%; inhibition [30]: > 25%; IC50 [31]: > 10 µM; deltaTm [32]: inactive; half-life at 1 µM [33]: 1 h; half-life at 1 µM [34]: > 1 h; IC50 [35]: 0.66 µM; inhibition [36]: > 25%; IC50 [37]: 0.37 µM
Nc1ncccc1-c1nc2cccnc2n1-c1ccc(CC(=O)Nc2ccccc2)cc1,> 25,> 25,> 1,> 25,0.21,> 25,> 25,> 10,> 25,> 10,> 10,70,22,> 25,> 25,> 25,> 25,> 25,> 25,1.2,inhibition [21]: > 25%; inhibition [22]: > 25%; IC50 [23]: > 10 µM; inhibition [24]: > 25%; inhibition [25]: > 25%; inhibition [26]: > 25%; inhibition [27]: > 25%; IC50 [28]: 2.5 µM; inhibition [29]: > 25%; inhibition [30]: > 25%; IC50 [31]: > 10 µM; deltaTm [32]: inactive; half-life at 1 µM [33]: 0.793 h; half-life at 1 µM [34]: > 1 h; IC50 [35]: 0.7 µM; inhibition [36]: > 25%; IC50 [37]: 1.3 µM
